One series concerns E. coli. As to the kind of experiment: Protective dose (PD50) in infected animals. It counts as in vivo, mice. Details: unit not given here. The following applies: PO. The text has this: (§1) The PD₅₀ values are protective doses, or the dose of test compound which secures survival of 50% of the animals of a test group, usually mice, during a designated period of time after being infected with an inoculum of infectious organism which will result in death of all inoculated untreated animals during that test period.

The nature of series [1]: Chemical stability in aqueous solution (half-life). It is filed as physicochemical. The procedure:
Chemical stability in aqueous solution at pH 7.4 and pH 2.0 is reported as half-life (t1/2). These values are determined by interpolation from a graph of concentration of test substance remaining in solution after storage under selected conditions for various periods of time.

The nature of series [2]: Blood concentration parameters after administration to mice. It is filed as in vivo. To be noted: for U.R.: listed after the PO/50 lines, abbreviation not defined; for half-life / AUC / Cmax: mouse, mice; for half-life: blood half-life. From the text: […] "Cmax" is the maximum concentration achieved, "t1/2" is the half-life or time for half of the absorbed material to disappear from the blood stream.

Another series deals with S. pneu. The series is described as follows: Protective dose (PD50) in infected animals. The following applies: PO. Details: unit not given beside the values. It counts as in vivo, mice.
Source text: as §1

In a further series the test system is Str. pyo. A9604. As to the kind of experiment: M.I.C., tube dilution method in Nutrient Broth. It counts as cell-based. To be noted: unit assumed. The procedure:
(§2) The following procedures illustrate the application of the process of this invention to the preparation of a variety of compounds of Formula V. In many instances, data illustrating the biological activity of the substances as antibiotics are presented. […] It is determined by interpolation from a graph of concentration versus number of cells following exposure of the organism to the test compound under growth conditions. Another parameter such as optical density which is proportional to the cell count may be used. In some instances MIC₉₀ values are also given. The latter refers to 90% growth inhibition.

For the next series, the system named is Staph aur. Pen+. The series is described as follows: M.I.C., tube dilution method in Nutrient Broth. It counts as cell-based. To be noted: unit assumed. The procedure:
as §2

For another series, the system named is P. rett. A22424. The series is described as follows: M.I.C., tube dilution method in Nutrient Broth. It counts as cell-based. To be noted: unit assumed. The protocol:
as §2

The next series concerns Str. pneu. A9585. As to the kind of experiment: M.I.C., tube dilution method in Nutrient Broth. It counts as cell-based. To be noted: unit assumed. The procedure:
as §2

The next series deals with K. pneu. A9664. The series is described as follows: M.I.C., tube dilution method in Nutrient Broth. It is filed as cell-based. The following applies: unit assumed. The protocol:
as §2

In another series the test system is Ser. mars. A20019. As to the kind of experiment: M.I.C., tube dilution method in Nutrient Broth. It is filed as cell-based. To be noted: unit assumed. The protocol: as §2
The subject of a further series is P. vul. A21559. As to the kind of experiment: M.I.C., tube dilution method in Nutrient Broth. It counts as cell-based. The following applies: unit assumed. The protocol: as §2
The next series deals with E. coli A20341. The series is described as follows: M.I.C., tube dilution method in Nutrient Broth. It counts as cell-based. The following applies: unit assumed. The protocol:
as §2

The subject of another series is E. coli A15119. As to the kind of experiment: M.I.C., tube dilution method in Nutrient Broth. It counts as cell-based. To be noted: unit assumed. The procedure: as §2
The test system of the next series is Ps. aeru. A9843. As to the kind of experiment: M.I.C., tube dilution method in Nutrient Broth. It is filed as cell-based. To be noted: unit assumed. The protocol:
as §2

The subject of another series is K. pneu. A20468. As to the kind of experiment: M.I.C., tube dilution method in Nutrient Broth. To be noted: unit assumed. It is filed as cell-based. The procedure:
as §2

A further series has as its system Ent. clo. A9656. The series is described as follows: M.I.C., tube dilution method in Nutrient Broth. The following applies: unit assumed. It is filed as cell-based. The protocol: as §2
The subject of the next series is Staph. aur. A9537. The series is described as follows: M.I.C., tube dilution method in Nutrient Broth. The following applies: unit assumed. It is filed as cell-based. The protocol:
as §2

A further series deals with Staph aur. MR. The series is described as follows: M.I.C., tube dilution method in Nutrient Broth. It counts as cell-based. The following applies: unit assumed. The procedure:
as §2

For a further series, the system named is Ent. clo. A9659. The series is described as follows: M.I.C., tube dilution method in Nutrient Broth. The following applies: unit assumed. It is filed as cell-based. The procedure:
as §2

The next series has as its system Str. faec. A20688. The series is described as follows: M.I.C., tube dilution method in Nutrient Broth. It counts as cell-based. The following applies: unit assumed. The protocol:
as §2

The test system of the next series is Staph. serum. As to the kind of experiment: M.I.C., tube dilution method in Nutrient Broth. It is filed as cell-based. The following applies: unit assumed. The procedure: as §2
A further series relates to P. morg. A15153. As to the kind of experiment: M.I.C., tube dilution method in Nutrient Broth. It counts as cell-based. The following applies: unit assumed. The procedure:
as §2

In a further series the test system is P. mir. A9900. The series is described as follows: M.I.C., tube dilution method in Nutrient Broth. It is filed as cell-based. To be noted: unit assumed. The protocol: as §2
Another series has as its system Ps. aeru. CarbR. The series is described as follows: M.I.C., tube dilution method in Nutrient Broth. It is filed as cell-based. To be noted: unit assumed. The protocol: as §2
Where [3] appears, read: citric acid buffer, pH 2, 37°C, pH 2.0 citric acid buffer, by hplc, read-out: t1/2, pH 2.
Where [4] appears, read: phosphate buffer, pH 7.4, 37°C, pH 7.4 phosphate buffer, by uv, read-out: t1/2, pH 7.4 (converted).

Each structure is given as a SMILES string. Where two headings read alike, the source gives them in different places.

What is called AUC is the area under the concentration-time curve, a measure of exposure. On to `C[C@@H](N)[C@H]1C(=O)N2C(C(=O)O)=C(SCc3ccccn3)[C@H](C)[C@H]12` [Procedure 18, (5S,6R) 6-(1′R-Aminoethyl)-4R-methyl-3-[(pyridin-2-yl)methylthio]-7-oxo-1-azabicyclo[3.2.0]hept-2-ene-2-carboxylic Acid], for which, in the series with E. coli, the “PD50, E. coli” value is reported as 11.20. Moreover, the half-life in series [1] (setting [3]) is 2 h; in series [1] (setting [4]), 2.8 h; in [2] (20 mg/kg, IM/20) it was 0.25 h; in series [2] (PO, 50 mg/kg), 0.4 h. This compound returned a U.R. in series [2] of 17. The area under the curve (AUC) turned out to be 11000 ng·h/mL in series [2] (blood, 20 mg/kg, IM/20) and 32000 ng·h/mL in [2] (blood, PO, 50 mg/kg). Further, the Cmax came out at 24000 ng/mL in series [2] (blood, 20 mg/kg, IM/20, read-out: Cmax, IM/20) and 33000 ng/mL in series [2] (blood, PO, 50 mg/kg, read-out: Cmax, PO/50). Further, in the series on S. pneu, the “PD50, S. pneu” value came to 16.5.
With `CC[C@H]1C(SCc2cn(C)nn2)=C(C(=O)O)N2C(=O)[C@H]([C@H](C)N)[C@@H]12` [Procedure 52, (5S,6R) 6-(1′S-Aminoethyl)-4R-ethyl-3-[(1-metyl-1,2,3-triazol-4-yl)-methylthio]-7-oxo-1-azabicyclo[3.2.0]hept-2-ene-2-carboxylate], the M.I.C. Str. pyo. A9604 in the series on Str. pyo. A9604 came out at 16 µg/mL. This compound returned a M.I.C. Staph aur. Pen+ in the series with Staph aur. Pen+ of 125 µg/mL. The compound further yielded a M.I.C. P. rett. A22424 in the series on P. rett. A22424 of 4 µg/mL. Moreover, the M.I.C. Str. pneu. A9585 with Str. pneu. A9585 came to 8 µg/mL. The compound further had a M.I.C. K. pneu. A9664 in the series on K. pneu. A9664 of 1 µg/mL. For the same compound, in the series with Ser. mars. A20019, the M.I.C. Ser. mars. A20019 came to 1 µg/mL. Besides, the M.I.C. P. vul. A21559 with P. vul. A21559 was 0.25 µg/mL. The M.I.C. E. coli A20341 in the series on E. coli A20341 came to 0.5 µg/mL. This compound came in with a M.I.C. E. coli A15119 in the series with E. coli A15119 of 0.5 µg/mL. The compound also gave a M.I.C. Ps. aeru. A9843 in the series on Ps. aeru. A9843 of 32 µg/mL. Further, in the series with K. pneu. A20468, the M.I.C. K. pneu. A20468 was 2 µg/mL. Besides, the M.I.C. Ent. clo. A9656 with Ent. clo. A9656 was 1 µg/mL. The same compound displayed a M.I.C. Staph. aur. A9537 in the series with Staph. aur. A9537 of 32 µg/mL. The M.I.C. Staph aur. MR in the series with Staph aur. MR turned out to be 125 µg/mL. The M.I.C. Ent. clo. A9659 in the series with Ent. clo. A9659 was 2 µg/mL. In the series on Str. faec. A20688, this compound displayed a M.I.C. Str. faec. A20688 of 125 µg/mL. The compound also displayed a M.I.C. Staph. serum in the series with Staph. serum of 63 µg/mL. In addition, in the series on P. morg. A15153, the M.I.C. P. morg. A15153 turned out to be 0.5 µg/mL. The compound also showed a M.I.C. P. mir. A9900 with P. mir. A9900 of 0.25 µg/mL.
As to `C[C@@H](N)[C@H]1C(=O)N2C(C(=O)O)=C(SCc3cn(C)nn3)[C@H](C)[C@H]12` [Procedure 15], the M.I.C. Str. pyo. A9604 in the series with Str. pyo. A9604 was 1 µg/mL. Also, in the series with Staph aur. Pen+, the M.I.C. Staph aur. Pen+ was 4 µg/mL. Besides, the M.I.C. P. rett. A22424 in the series on P. rett. A22424 is 4 µg/mL. Moreover, in the series with Str. pneu. A9585, the M.I.C. Str. pneu. A9585 was determined as 1 µg/mL. Moreover, the M.I.C. K. pneu. A9664 with K. pneu. A9664 was 0.13 µg/mL. The M.I.C. Ser. mars. A20019 in the series with Ser. mars. A20019 is 0.13 µg/mL. In the series on P. vul. A21559, the M.I.C. P. vul. A21559 stood at 0.06 µg/mL. The M.I.C. E. coli A20341 in the series on E. coli A20341 came out at 0.03 µg/mL. The same compound registered a M.I.C. E. coli A15119 in the series with E. coli A15119 of 0.03 µg/mL. This compound also came in with a M.I.C. Ps. aeru. A9843 in the series on Ps. aeru. A9843 of 2 µg/mL. This compound came in with a M.I.C. K. pneu. A20468 in the series with K. pneu. A20468 of 0.13 µg/mL. Besides, the M.I.C. Ent. clo. A9656 with Ent. clo. A9656 was determined as 0.03 µg/mL. Besides, in the series with Staph. aur. A9537, the M.I.C. Staph. aur. A9537 came to 4 µg/mL. In the series on Staph aur. MR, this compound registered a M.I.C. Staph aur. MR of 32 µg/mL. Besides, the M.I.C. Ent. clo. A9659 in the series on Ent. clo. A9659 turned out to be 0.13 µg/mL. This compound also gave a M.I.C. Str. faec. A20688 in the series on Str. faec. A20688 of 125 µg/mL. In the series on Staph. serum, this compound gave a M.I.C. Staph. serum of 4 µg/mL. Further, in the series with Ps. aeru. CarbR, the M.I.C. Ps. aeru. CarbR amounted to 16 µg/mL. Besides, the M.I.C. P. morg. A15153 in the series on P. morg. A15153 is 0.13 µg/mL. For the same compound, the M.I.C. P. mir. A9900 with P. mir. A9900 is 0.03 µg/mL. Further, in the series on E. coli, the “PD50, E. coli” value was found to be 21.80. Also, the half-life in series [1] (setting [3]) is 2.4 h; in series [1] (setting [4]), 3.1 h; in series [2] (in vivo, PO, 50 mg/kg), 0.4 h. The U.R. in [2] was determined as 11. In series [2] (in vivo, PO, 50 mg/kg), this compound yielded an exposure (AUC) of 25000 ng·h/mL. The Cmax in series [2] (in vivo, PO, 50 mg/kg, read-out: Cmax, PO/50) amounted to 29000 ng/mL.
